Laboratory results reported in patent US6603023B2 (priority 1996, dated 2003).
Like-named read-outs stand apart in the source and are kept apart here. Marks after values point to notes of the source that are not given here.

Legend:
[1] = tested on: CCRF-CEM human T-cell acute lymphoblastic leukemia cell line; experiment: XTT cytotoxicity (cell growth inhibition), CCRF-CEM
Summary of the method: (§1)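 Suspension leukemic cells (CCRF-CEM, P388 and drug-resistant sublines kept under the selecting agent) were seeded at 5×10^4 cells/mL in RPMI-1640 with 10% FBS at 37 °C. After 72 h drug exposure in duplicate, PMS-XTT was added for 4 h. Absorbance was read at 450 and 630 nm.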

P388/Adr = experiment: cells; assay type: cell-based, murine; settings: Table 1C
Summary of the method: as §1

[2] = tested on: human mammary carcinoma MX-1 xenograft; settings: for Average Body Weight, Day 7: initial weight, first treatment day
Description: DMSO was used as a vehicle for epothilones. Each mouse received ≦40 μL DMSO in all experiments.
Athymic nude mice (nu/nu) were used for MX-1 and MCF-7/Adr human mammary carcinoma xenografts. Mice were obtained from Taconic Laboratory Animals and Service (Germantown, N.Y.: outbred, Swiss background).

Human CCRF-CEM Xenograft = experiment: CCRF-CEM xenograft in scid mice; assay type: in vivo, CB-17 scid mice; settings: for mice died of drug toxicity: 7 mice
[3] = tested on: Human CCRF-CEM/VBL Xenograft; experiment: CCRF-CEM/VBL xenograft in scid mice; assay type: in vivo, CB-17 scid mice
[4] = 0.3 mg/kg i.p. Q2Dx5 from day 7, day 11
[5] = 0.3 mg/kg i.p. Q2Dx5 from day 7, day 13
[6] = 0.3 mg/kg i.p. Q2Dx5 from day 7, day 15
[7] = 0.3 mg/kg i.p. Q2Dx5 from day 7, day 17
[8] = 0.6 mg/kg i.p. Q2Dx5 from day 7, day 11
[9] = 0.6 mg/kg i.p. Q2Dx5 from day 7, day 13
[10] = 0.6 mg/kg i.p. Q2Dx5 from day 7, day 15
[11] = 0.6 mg/kg i.p. Q2Dx5 from day 7, day 17
[12] = 0.6 mg/kg i.p. Q2Dx5 from day 9
[13] = 0.6 mg/kg i.p. Q2Dx5 from day 9, day 13
[14] = 0.6 mg/kg i.p. Q2Dx5 from day 9, day 15
[15] = 0.6 mg/kg i.p. Q2Dx5 from day 9, day 17
[16] = 0.6 mg/kg i.p. Q2Dx5 from day 9, day 19
[17] = high doses: dEpoB 25, EpoB 0.6, Taxol 10, Vinblastine 0.4 mg/kg i.p. Q2D from day 7
[18] = low doses: dEpoB 15, EpoB 0.3, Taxol 5, Vinblastine 0.2 mg/kg i.p. Q2D day 7-15
[19] = dose 0.7 i.p. QD d7-10,14,15, day 7
[20] = dose 0.7 i.p. QD d7-10,14,15, day 12
[21] = dose 0.7 i.p. QD d7-10,14,15, day 17
[22] = dose 0.7 i.p. QD d7-10,14,15, day 22
[23] = dose 1.0 i.p. QD d7-10,14,15, day 7
[24] = dose 1.0 i.p. QD d7-10,14,15, day 12
[25] = dose 1.0 i.p. QD d7-10,14,15, day 17
[26] = dose 1.0 i.p. QD d7-10,14,15, day 22

SMILES: C/C(=C\c1csc(C)n1)[C@@H]1C[C@@H]2O[C@]2(C)CCC[C@H](C)[C@H](O)[C@@H](C)C(=O)C(C)(C)[C@@H](O)CC(=O)O1 [Epothilone B, epothilone B]
- IC50 [1]: 0.35 nM
- fold more potent than Epo A ([1]; CCRF-CEM cells): 6 fold
- fold more potent than Taxol ([1]; CCRF-CEM cells): 10 fold
- Rel. Value (potency relative to Epo B) ([1]; CCRF-CEM leukemic cells): 1
- IC50 ([1]; Table 1, XTT): 0.4 nM
- folds of resistance (IC50 ratio vs parent cell line) (P388/Adr; P388/Adr vs P388/O): (5.5x)
- IC50 (P388/Adr; XTT, 72 h, read-out: IC50): 1.6 nM
- Toxicity Death ([2]; 0.3 mg/kg i.p. Q2Dx5 from day 7): 0/7
- Average Body Weight Change [2, 4]: +0.5 g
- Average Tumor Size (T/C) [2, 4]: 1.00
- Average Body Weight Change [2, 5]: +0.4 g
- Average Tumor Size (T/C) [2, 5]: 0.71
- Average Body Weight Change [2, 6]: -0.3 g
- Average Tumor Size (T/C) [2, 6]: 0.71
- Average Body Weight Change [2, 7]: -1.2 g
- Average Tumor Size (T/C) [2, 7]: 0.84
- Toxicity Death ([2]; 0.6 mg/kg i.p. Q2Dx5 from day 7): 3/7)##
- Average Body Weight Change [2, 8]: -0.3 g
- Average Tumor Size (T/C) [2, 8]: 1.08
- Average Body Weight Change [2, 9]: -1.3 g
- Average Tumor Size (T/C) [2, 9]: 0.73
- Average Body Weight Change [2, 10]: -2.1 g
- Average Tumor Size (T/C) [2, 10]: 0.81
- Average Body Weight Change [2, 11]: -2.1 g
- Average Tumor Size (T/C) [2, 11]: 0.74
- Toxicity Death [2, 12]: 0/6
- Tumor Disapp. [2, 12]: 0/6
- Average Body Weight Change [2, 13]: -0.9 g
- Average Tumor Size (T/C) [2, 13]: 0.67
- Average Body Weight Change [2, 14]: 0.5 g
- Average Tumor Size (T/C) [2, 14]: 0.63
- Average Body Weight Change [2, 15]: -3.3 g
- Average Tumor Size (T/C) [2, 15]: 0.61
- Average Body Weight Change [2, 16]: -3.4 g
- Average Tumor Size (T/C) [2, 16]: 0.51
- average body weight decrease ([2]; EpoB 0.3 mg/kg i.p. days 7-15): over 1 g
- average body weight decrease ([2]; EpoB 0.6 mg/kg i.p. days 7-15): > 2 g
- mice died of toxicity ([2]; EpoB 0.6 mg/kg i.p. days 7-15): three out of seven
- Therapeutic effect Rank Order ([2]; MX-1, i.p., comparison with Camptothecin, VBL, EpoB (order wraps over rows r7-r8)): Taxol ® > VBL, EpoB
- Average Body Weight (change), Day 11 [2, 17]: -0.3 g
- Average Body Weight (change), Day 13 [2, 17]: -1.3 g
- Average Body Weight (change), Day 15 [2, 17]: -2.1 g
- Average Body Weight Change, Day 17 [2, 17]: -2.1 g
- Average Tumor Volume (T/C), Day 11 [2, 17]: 1.08 T/C
- Average Tumor Volume (T/C), Day 13 [2, 17]: 0.73 T/C
- Average Tumor Volume (T/C), Day 15 [2, 17]: 0.81 T/C
- Average Tumor Volume (T/C), Day 17 [2, 17]: 0.74 T/C
- Note: died (mice died/total) [2, 17]: 3/7 died
- Average Body Weight, Day 7 [2, 17]: 27.4 g
- Average Body Weight, Day 7 [2, 18]: 26.9 g
- Average Body Weight (change), Day 11 [2, 18]: +0.5 g
- Average Body Weight (change), Day 13 [2, 18]: +0.4 g
- Average Body Weight (change), Day 15 [2, 18]: -0.3 g
- Average Body Weight Change, Day 17 [2, 18]: -1.2 g
- Average Tumor Volume (T/C), Day 11 [2, 18]: 1.00 T/C
- Average Tumor Volume (T/C), Day 13 [2, 18]: 0.71 T/C
- Average Tumor Volume (T/C), Day 15 [2, 18]: 0.71 T/C
- Average Tumor Volume (T/C), Day 17 [2, 18]: 0.84 T/C
- Note: died (mice died/total) [2, 18]: 0/7 died
- mice died of drug toxicity (Human CCRF-CEM Xenograft; Epo B dose 0.7 i.p., day 19 & 20): ^4.Two mice died of drug toxicity on day 19 & 20.
- mice died of drug toxicity (Human CCRF-CEM Xenograft; Epo B dose 1.0 i.p., day 18, 19 and 21): ^5.Three mice died of drug toxicity on day 18, 19 and 21.
- Average weight change (Human CCRF-CEM Xenograft; [19]): −0.1
- Average tumor volume (control = 1.00) (Human CCRF-CEM Xenograft; [20]): 0.53
- Average weight change (Human CCRF-CEM Xenograft; [20]): −0.7
- Average tumor volume (control = 1.00) (Human CCRF-CEM Xenograft; [21]): 0.48
- Average weight change (Human CCRF-CEM Xenograft; [21]): −1.4
- Average tumor volume (control = 1.00) (Human CCRF-CEM Xenograft; [22]): 0.46
- Average weight change (Human CCRF-CEM Xenograft; [22]): +0.3
- Average weight change (Human CCRF-CEM Xenograft; [23]): +0.1
- Average tumor volume (control = 1.00) (Human CCRF-CEM Xenograft; [24]): 0.46
- Average weight change (Human CCRF-CEM Xenograft; [24]): −1.5
- Average tumor volume (control = 1.00) (Human CCRF-CEM Xenograft; [25]): 0.35
- Average weight change (Human CCRF-CEM Xenograft; [25]): −2.4
- Average tumor volume (control = 1.00) (Human CCRF-CEM Xenograft; [26]): 0.43
- Average weight change (Human CCRF-CEM Xenograft; [26]): +0.1
- mice died of drug toxicity ([3]; Epo B dose 1.0 i.p., 7 mice, day 17): ^6.One mouse died of drug toxicity on day 17.
- Average weight change [3, 19]: +0.1
- Average tumor volume (control = 1.00) [3, 20]: 0.32
- Average weight change [3, 20]: −0.7
- Average tumor volume (control = 1.00) [3, 21]: 0.40
- Average weight change [3, 21]: −1.0
- Average tumor volume (control = 1.00) [3, 22]: 0.33
- Average weight change [3, 22]: −0.2
- Average weight change [3, 23]: −0.2
- Average tumor volume (control = 1.00) [3, 24]: 0.41
- Average weight change [3, 24]: −1.3
- Average tumor volume (control = 1.00) [3, 25]: 0.27
- Average weight change [3, 25]: −2.1
- Average tumor volume (control = 1.00) [3, 26]: 0.31
- Average weight change [3, 26]: −0.5
